# Data as given in patent publication US9688627B2, “Lactam compounds as EP4 receptor-selective agonists for use in the treatment of EP4-mediated diseases and conditions” (Cayman Chemical Company, Inc., priority 2013, dated 2017).
# Tests used:
# rat EP4 receptor = target: T1, rat EP4 receptor (Rattus norvegicus, UniProt P43114); test: SEAP activity assay on EP4 STEP plate; assay type: cell-based; conditions: SEAP luminescence, 6-8 hours of stimulation; read-out: STEP cell functional assay EC50 SEAP/EP4
# T1 construct: cells seeded on STEP plates
# T1 sequence (P43114 whole entry): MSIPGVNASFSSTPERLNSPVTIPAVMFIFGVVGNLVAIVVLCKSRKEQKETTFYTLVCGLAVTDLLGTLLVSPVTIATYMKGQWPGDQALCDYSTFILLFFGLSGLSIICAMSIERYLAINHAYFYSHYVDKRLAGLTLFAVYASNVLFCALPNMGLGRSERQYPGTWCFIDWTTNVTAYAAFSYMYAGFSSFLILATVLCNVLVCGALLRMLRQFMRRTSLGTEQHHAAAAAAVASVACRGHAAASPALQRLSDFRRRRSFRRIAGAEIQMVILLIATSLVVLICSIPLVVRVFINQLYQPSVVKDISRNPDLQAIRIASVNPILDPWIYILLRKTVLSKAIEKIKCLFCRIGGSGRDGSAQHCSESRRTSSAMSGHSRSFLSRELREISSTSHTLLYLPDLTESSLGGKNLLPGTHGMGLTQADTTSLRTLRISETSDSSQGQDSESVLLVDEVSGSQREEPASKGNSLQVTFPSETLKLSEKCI
# Source text: (§1) 2. […] In addition each concentration had triplicates. […] 4. […] Cover the plate with the lid. […] 6. […] 7. […] 8.
# rat EP2 receptor = target: T2, rat EP2 receptor (Rattus norvegicus, UniProt Q62928); test: SEAP activity assay on EP2 STEP plate; assay type: cell-based; conditions: SEAP luminescence, 6-8 hours of stimulation; read-out: STEP cell functional assay EC50 SEAP/EP2
# T2 construct: cells seeded on STEP plates
# T2 sequence (Q62928 whole entry): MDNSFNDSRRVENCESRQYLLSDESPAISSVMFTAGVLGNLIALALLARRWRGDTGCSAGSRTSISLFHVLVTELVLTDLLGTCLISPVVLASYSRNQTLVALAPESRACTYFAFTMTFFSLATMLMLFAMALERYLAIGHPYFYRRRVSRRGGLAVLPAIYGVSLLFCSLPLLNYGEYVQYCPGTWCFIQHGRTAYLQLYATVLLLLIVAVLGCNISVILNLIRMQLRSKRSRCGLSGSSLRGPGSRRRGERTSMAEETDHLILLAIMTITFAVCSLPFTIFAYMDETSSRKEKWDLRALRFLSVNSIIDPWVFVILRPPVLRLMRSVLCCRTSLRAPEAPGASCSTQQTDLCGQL
# Source text: as §1
Compound,EC50 (rat EP4 receptor),EC50 (rat EP2 receptor)
"CCC#CCC(C)[C@@H](O)/C=C/[C@H]1CCC(=O)N1CCCCCCC(=O)O (mixture of isomers) [Example 2D, 7-((2R)-2-((3R,4R/S,E)-3-hydroxy-4-methylnon-1-en-6-yn-1-yl)-5-oxopyrrolidin-1-yl)heptanoic acid]",0.145 nM,1420 nM
"CCCC#CCC(C)[C@H](O)/C=C/[C@H]1CCC(=O)N1CCCCCCC(=O)OC (mixture of isomers) [Example 3A, methyl 7-((2R)-2-((3S,4R/S,E)-3-hydroxy-4-methyldec-1-en-6-yn-1-yl)-5-oxopyrrolidin-1-yl)heptanoate]",8.64 nM,2490 nM
"CCCC#CCC(C)[C@@H](O)/C=C/[C@H]1CCC(=O)N1CCCCCCC(=O)OC (mixture of isomers) [Example 3B, methyl 7-((2R)-2-((3R,4R/S,E)-3-hydroxy-4-methyldec-1-en-6-yn-1-yl)-5-oxopyrrolidin-1-yl)heptanoate]",223 nM,> 10000 nM
"CCCC#CCC(C)[C@H](O)/C=C/[C@H]1CCC(=O)N1CCCCCCC(=O)O (mixture of isomers) [Example 3C, 7-((2R)-2-((3S,4R/S,E)-3-hydroxy-4-methyldec-1-en-6-yn-1-yl)-5-oxopyrrolidin-1-yl)heptanoic acid]",0.085 nM,2260 nM
"CCCC#CCC(C)[C@@H](O)/C=C/[C@H]1CCC(=O)N1CCCCCCC(=O)O (mixture of isomers) [Example 3D, 7-((2R)-2-((3R,4R/S,E)-3-hydroxy-4-methyldec-1-en-6-yn-1-yl)-5-oxopyrrolidin-1-yl)heptanoic acid]",29 nM,> 10000 nM
"CC(CC#Cc1ccccc1)[C@H](O)/C=C/[C@H]1CCC(=O)N1CCCCCCC(=O)O (mixture of isomers) [Example 4C, 7-((2R)-2-((3S,4R/S,E)-3-hydroxy-4-methyl-7-phenylhept-1-en-6-yn-1-yl)-5-oxopyrrolidin-1-yl)heptanoic acid]",2.49 nM,830 nM
"COC(=O)CCCCCCN1C(=O)CC[C@@H]1/C=C/[C@@H](O)CCC#Cc1ccccc1 (single isomer, unassigned) [Example 5A]",77.7 nM,> 10000 nM
"COC(=O)CCCCCCN1C(=O)CC[C@@H]1/C=C/[C@H](O)CCC#Cc1ccccc1 (single isomer, unassigned) [Example 5B]",41.5 nM,> 5000 nM
"CCC#CC[C@@H](C)[C@H](O)/C=C/[C@H]1CCC(=O)N1CCCCCCC(=O)O [Example 2F, 7-((R)-2-((3S,4R,E)-3-hydroxy-4-methylnon-1-en-6-yn-1-yl)-5-oxopyrrolidin-1-yl)heptanoic acid]",1.06 ± 0.11 nM,–
"O=C(O)CCCCCCN1C(=O)CC[C@@H]1/C=C/[C@@H](O)CCC#Cc1ccccc1 [Example 5C, 7-((R)-2-((3S,E)-3-hydroxy-7-phenylhept-1-en-6-yn-1-yl)-5-oxopyrrolidin-1-yl)heptanoic acid]",111 nM,–
"O=C(O)CCCCCCN1C(=O)CC[C@@H]1/C=C/[C@H](O)CCC#Cc1ccccc1 [Example 5D, 7-((R)-2-((3R,E)-3-hydroxy-7-phenylhept-1-en-6-yn-1-yl)-5-oxopyrrolidin-1-yl)heptanoic acid]",46.8 nM,–

# Continued, values first:
EC50 (rat EP4 receptor),EC50 (rat EP2 receptor),Compound
6.74 nM,364 nM,"CC#CCC(C)[C@H](O)/C=C/[C@H]1CCC(=O)N1CCc1ccc(C(=O)OC)cc1 (mixture of isomers) [Example 8A, methyl 4-(2-((2R)-2-((3S,4R/S,E)-3-hydroxy-4-methyloct-1-en-6-yn-1-yl)-5-oxopyrrolidin-1-yl)ethyl)benzoate]"
1640 nM,–,"CC#CCC(C)[C@@H](O)/C=C/[C@H]1CCC(=O)N1CCc1ccc(C(=O)OC)cc1 (mixture of isomers) [Example 8B, methyl 4-(2-((2R)-2-((3R,4R/S,E)-3-hydroxy-4-methyloct-1-en-6-yn-1-yl)-5-oxopyrrolidin-1-yl)ethyl)benzoate]"
13.4 nM,1130 nM,"CC#CCC(C)[C@@H](O)/C=C/[C@H]1CCC(=O)N1CCc1ccc(C(=O)O)cc1 (mixture of isomers) [Example 8D, 4-(2-((2R)-2-((3R,4R/S,E)-3-hydroxy-4-methyloct-1-en-6-yn-1-yl)-5-oxopyrrolidin-1-yl)ethyl)benzoic acid]"
0.054 nM,2960 nM,"CC(CC#Cc1ccccc1)[C@H](O)/C=C/[C@H]1CCC(=O)N1CCc1ccc(C(=O)O)cc1 (mixture of isomers) [Example 11C, 4-(2-((2R)-2-((3S,4R/S,E)-3-hydroxy-4-methyl-7-phenylhept-1-en-6-yn-1-yl)-5-oxopyrrolidin-1-yl)ethyl)benzoic acid]"
3.51 nM,1750 nM,"CC(CC#Cc1ccccc1)[C@@H](O)/C=C/[C@H]1CCC(=O)N1CCc1ccc(C(=O)O)cc1 (mixture of isomers) [Example 11D, 4-(2-((2R)-2-((3R,4R/S,E)-3-hydroxy-4-methyl-7-phenylhept-1-en-6-yn-1-yl)-5-oxopyrrolidin-1-yl)ethyl)benzoic acid]"
2290 nM,> 10000 nM,"CC#CCC(C)[C@H](O)/C=C/[C@H]1CCC(=O)N1Cc1ccc(CC(=O)O)cc1 (mixture of isomers) [Example 12C, 2-(4-(((2R)-2-((3S,4R/S,E)-3-hydroxy-4-methyloct-1-en-6-yn-1-yl)-5-oxopyrrolidin-1-yl)methyl)phenyl)acetic acid]"
> 10000 nM,> 10000 nM,"CC#CCC(C)[C@@H](O)/C=C/[C@H]1CCC(=O)N1Cc1ccc(CC(=O)O)cc1 (mixture of isomers) [Example 12D, 2-(4-(((2R)-2-((3R,4R/S,E)-3-hydroxy-4-methyloct-1-en-6-yn-1-yl)-5-oxopyrrolidin-1-yl)methyl)phenyl)acetic acid]"
947 nM,> 10000 nM,"CCC#CCC(C)[C@H](O)/C=C/[C@H]1CCC(=O)N1C/C=C\c1ccc(C(=O)O)s1 (mixture of isomers) [Example 15C, 5-((Z)-3-((2R)-2-((3S,4R/S,E)-3-hydroxy-4-methylnon-1-en-6-yn-1-yl)-5-oxopyrrolidin-1-yl)prop-1-en-1-yl)thiophene-2-carboxylic acid]"
1600 nM,> 10000 nM,"CCC#CCC(C)[C@@H](O)/C=C/[C@H]1CCC(=O)N1C/C=C\c1ccc(C(=O)O)s1 (mixture of isomers) [Example 15D, 5-((Z)-3-((2R)-2-((3R,4R/S,E)-3-hydroxy-4-methylnon-1-en-6-yn-1-yl)-5-oxopyrrolidin-1-yl)prop-1-en-1-yl)thiophene-2-carboxylic acid]"
67.2 nM,> 10000 nM,"CC(CC#Cc1ccccc1)[C@H](O)/C=C/[C@H]1CCC(=O)N1C/C=C\c1ccc(C(=O)O)s1 (mixture of isomers) [Example 16C, 5-((Z)-3-((2R)-2-((3S,4R/S,E)-3-hydroxy-4-methyl-7-phenylhept-1-en-6-yn-1-yl)-5-oxopyrrolidin-1-yl)prop-1-en-1-yl)thiophene-2-carboxylic acid]"
1200 nM,> 10000 nM,"CC(CC#Cc1ccccc1)[C@@H](O)/C=C/[C@H]1CCC(=O)N1C/C=C\c1ccc(C(=O)O)s1 (mixture of isomers) [Example 16D, 5-((Z)-3-((2R)-2-((3R,4R/S,E)-3-hydroxy-4-methyl-7-phenylhept-1-en-6-yn-1-yl)-5-oxopyrrolidin-1-yl)prop-1-en-1-yl)thiophene-2-carboxylic acid]"
6.71 nM,> 3000 nM,"CCC#C[C@H](O)/C=C/[C@H]1CCC(=O)N1CCCCCCC(=O)OC (single isomer, unassigned) [Example 6A]"
–,> 2000 nM,"CCC#C[C@@H](O)/C=C/[C@H]1CCC(=O)N1CCCCCCC(=O)OC (single isomer, unassigned) [Example 6B]"
4.73 nM,–,"CCC#C[C@H](O)/C=C/[C@H]1CCC(=O)N1CCCCCCC(=O)O [Example 6C, 7-((R)-2-((R,E)-3-hydroxyhept-1-en-4-yn-1-yl)-5-oxopyrrolidin-1-yl)heptanoic acid]"
4.79 nM,–,"CCC#C[C@@H](O)/C=C/[C@H]1CCC(=O)N1CCCCCCC(=O)O [Example 6D, 7-((R)-2-((S,E)-3-hydroxyhept-1-en-4-yn-1-yl)-5-oxopyrrolidin-1-yl)heptanoic acid]"
22.3 nM,> 10000 nM,"O=C(O)CCCCCCN1C(=O)CC[C@@H]1/C=C/[C@@H](O)C#Cc1ccccc1 [Example 7C, 7-((R)-2-((R,E)-3-hydroxy-5-phenylpent-1-en-4-yn-1-yl)-5-oxopyrrolidin-1-yl)heptanoic acid]"
18.3 nM,> 10000 nM,"CCC#CCC(C)[C@H](O)/C=C/[C@H]1CCC(=O)N1CC#Cc1ccc(C(=O)O)s1 (stereo partly drawn) [Example 13C, 5-(3-((2R)-2-((3S,E)-3-hydroxy-4-methylnon-1-en-6-yn-1-yl)-5-oxopyrrolidin-1-yl)prop-1-yn-1-yl)thiophene-2-carboxylic acid]"
–,> 10000 nM,"CCC#CCC(C)[C@@H](O)/C=C/[C@H]1CCC(=O)N1CC#Cc1ccc(C(=O)O)s1 (stereo partly drawn) [Example 13D, 5-(3-((2R)-2-((3R,E)-3-hydroxy-4-methylnon-1-en-6-yn-1-yl)-5-oxopyrrolidin-1-yl)prop-1-yn-1-yl)thiophene-2-carboxylic acid]"
0.091 nM,> 10000 nM,"CCC#CCC(C)[C@H](O)/C=C/[C@H]1CCC(=O)N1CCCc1ccc(C(=O)O)s1 (stereo partly drawn) [Example 17F, 5-(3-((R)-2-((3S,E)-3-hydroxy-4-methylnon-1-en-6-yn-1-yl)-5-oxopyrrolidin-1-yl)propyl)thiophene-2-carboxylic acid]"
18.4 nM,> 10000 nM,"CCC#CCC(C)[C@@H](O)/C=C/[C@H]1CCC(=O)N1CCCc1ccc(C(=O)O)s1 (stereo partly drawn) [Example 17G, 5-(3-((R)-2-((3R,E)-3-hydroxy-4-methylnon-1-en-6-yn-1-yl)-5-oxopyrrolidin-1-yl)propyl)thiophene-2-carboxylic acid]"
